The values below come from patent publication US10851083B2, “Benzoimidazoles as prolyl hydroxylase inhibitors” (Janssen Pharmaceutica NV, priority 2008, dated 2020).

Structures are written as SMILES.

One assay has as its target human PHD2181-417 (Homo sapiens (Human), UniProt Q9GZT9). Briefly: PHD2 enzyme activity assay ([14C]-succinic acid production).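 On all read-outs here: reaction ran 10 min with compound in Tris pH 7.5 buffer with catalase, DTT and ascorbate, labelled succinate freed of leftover 2-oxoglutarate by DNP precipitation, then beta counted.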 The assay is classed as biochemical. The conditions noted are these: PHD2181-417 polypeptide, HIF-1α peptide 10 μM, [5-14C]-2-oxoglutaric acid, 30 min pre-incubation, tested 10 μM to 3 nM; for IC50: read-out: Enzyme pIC50 (converted).
The next assay deals with Hep-3B cells. Briefly: Cellular assay: EPO secretion in Hep-3B cells. More on the design: EPO secretion, % of control compound: dose or concentration left out as unconfirmed. The assay is classed as cell-based, human. The following applies: 24 h, EPO secretion as percentage of control compound 7-[(4-Chloro-phenyl)-(5-methyl-isoxazol-3-ylamino)-methyl]-quinolin-8-ol; for EPO secretion, % of control compound: Homo sapiens, Hep3B, read-out: Cellular % EPO Stimulation; for Cellular % EPO Stimulation: compound at 100 μM (10 μM or 100 μM).

Sequence of human PHD2181-417 (Q9GZT9 181-417): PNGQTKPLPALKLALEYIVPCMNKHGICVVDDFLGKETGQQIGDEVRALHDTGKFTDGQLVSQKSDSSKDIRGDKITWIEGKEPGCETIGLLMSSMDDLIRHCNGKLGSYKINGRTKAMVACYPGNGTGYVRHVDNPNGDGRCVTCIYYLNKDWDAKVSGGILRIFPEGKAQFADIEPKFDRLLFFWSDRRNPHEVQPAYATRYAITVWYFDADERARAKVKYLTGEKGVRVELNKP

For `O=C(O)c1cnn(-c2nc3cc(Cl)c(Cl)cc3[nH]2)c1` [Example 2, 1-(5,6-Dichloro-1H-benzoimidazol-2-yl)-1H-pyrazole-4-carboxylic Acid], the “Enzyme pIC50” value at human PHD2181-417 is reported as 6.9. Further, in the assay with Hep-3B cells, the EPO secretion, % of control compound is 152%. For `O=C(O)c1cn(-c2nc3cc(Cl)c(Cl)cc3[nH]2)nc1C(F)(F)F` [Example 20, 1-(5,6-dichloro-1H-benzoimidazol-2-yl)-3-trifluoromethyl-1H-pyrazole-4-carboxylic Acid], at human PHD2181-417, the IC50 is above 100 µM. In the assay with Hep-3B cells, the “Cellular % EPO Stimulation” value was determined as 18.81%. Taken in the same sequence, the figures for `Cc1nn(-c2nc3cc(Cl)c(Cl)cc3[nH]2)c(C)c1C(=O)O` [Example 22, 1-(5,6-Dichloro-1H-benzoimidazol-2-yl)-3,5-dimethyl-1H-pyrazole-4-carboxylic Acid] were above 100 µM and 0.47%. Consider `O=C(O)c1cnn(-c2nc3c(Cl)cccc3[nH]2)c1` [Example 27, 1-(4-Chloro-1H-benzoimidazol-2-yl)-1H-pyrazole-4-carboxylic Acid], for which the “Enzyme pIC50” value on human PHD2181-417 is listed as 6.1. Also, the EPO secretion, % of control compound with Hep-3B cells was found to be 19.1%.

Turning to `O=C(O)c1cnn(-c2nc3cc(Cl)cc(C(F)(F)F)c3[nH]2)c1` [Example 28, 1-(5-Chloro-7-trifluoromethyl-1H-benzoimidazol-2-yl)-1H-pyrazole-4-carboxylic Acid], the “Enzyme pIC50” value at human PHD2181-417 stood at 6.4. The EPO secretion, % of control compound in the assay with Hep-3B cells came out at 16.6%.

`O=C(O)c1cnn(-c2nc3c(F)c(F)c(F)cc3[nH]2)c1` [Example 31, 1-(4,5,6-Trifluoro-1H-benzoimidazol-2-yl)-1H-pyrazole-4-carboxylic Acid]: the “Enzyme pIC50” value at human PHD2181-417 turned out to be 7. Moreover, the EPO secretion, % of control compound in the assay on Hep-3B cells turned out to be 18.2%. Regarding `O=C(O)c1cnn(-c2nc3c(Br)c(F)c(F)cc3[nH]2)c1` [Example 32, 1-(4-Bromo-5,6-difluoro-1H-benzoimidazol-2-yl)-1H-pyrazole-4-carboxylic Acid], the “Enzyme pIC50” value on human PHD2181-417 is 6.7. Further, in the assay on Hep-3B cells, the EPO secretion, % of control compound came out at 33%.

Regarding `Cc1cc(Cl)cc2[nH]c(-n3cc(C(=O)O)cn3)nc12` [Example 33, 1-(6-Chloro-4-methyl-1H-benzoimidazol-2-yl)-1H-pyrazole-4-carboxylic Acid], the “Enzyme pIC50” value on human PHD2181-417 amounted to 6. In the assay with Hep-3B cells, the EPO secretion, % of control compound is 13.4%. For `O=C(O)c1cnn(-c2nc3c(Cl)cc(Cl)cc3[nH]2)c1` [Example 34, 1-(4,6-Dichloro-1H-benzoimidazol-2-yl)-1H-pyrazole-4-carboxylic Acid], the “Enzyme pIC50” value at human PHD2181-417 came to 6.5. Besides, the EPO secretion, % of control compound with Hep-3B cells was 56.3%. Taken in the same sequence, the figures for `O=C(O)c1cnn(-c2nc3c(Br)cc(C(F)(F)F)cc3[nH]2)c1` [Example 35, 1-(4-Bromo-6-trifluoromethyl-1H-benzoimidazol-2-yl)-1H-pyrazole-4-carboxylic Acid] were 6.8 and 29.7%. `O=C(O)c1cnn(-c2nc3cc(F)c(F)cc3[nH]2)c1` [Example 36, 1-(5,6-Difluoro-1H-benzoimidazol-2-yl)-1H-pyrazole-4-carboxylic Acid]: the “Enzyme pIC50” value at human PHD2181-417 is given as 6.6. Moreover, in the assay with Hep-3B cells, the EPO secretion, % of control compound worked out at 79.4%. In the same order, the values of `O=C(O)c1cnn(-c2nc3c(Br)cc(Cl)cc3[nH]2)c1` [Example 37, 1-(4-Bromo-6-chloro-1H-benzoimidazol-2-yl)-1H-pyrazole-4-carboxylic Acid] are 6.6 and 34%. Taken in the same sequence, the figures for `CS(=O)(=O)c1ccc2nc(-n3cc(C(=O)O)cn3)[nH]c2c1` [Example 38, 1-(6-Methanesulfonyl-1H-benzoimidazol-2-yl)-1H-pyrazole-4-carboxylic Acid] were 7.1 and 40.9%. In the same order, the values of `N#Cc1cc2nc(-n3cc(C(=O)O)cn3)[nH]c2cc1Cl` [Example 39, 1-(6-Chloro-5-cyano-1H-benzoimidazol-2-yl)-1H-pyrazole-4-carboxylic Acid] are 7.4 and 29.9%. For the molecule `O=C(O)c1cnn(-c2nc3cc([N+](=O)[O-])c(Cl)cc3[nH]2)c1` [Example 40, 1-(6-Chloro-5-nitro-1H-benzoimidazol-2-yl)-1H-pyrazole-4-carboxylic Acid], the “Enzyme pIC50” value on human PHD2181-417 is listed as 7.5. For the same molecule, in the assay on Hep-3B cells, the EPO secretion, % of control compound is 93.4%. Taken in the same sequence, the figures for `Nc1cc2nc(-n3cc(C(=O)O)cn3)[nH]c2cc1Cl` [Example 41, 1-(5-Amino-6-chloro-1H-benzoimidazol-2-yl)-1H-pyrazole-4-carboxylic Acid] were 6.4 and 30%. In the same order, the values of `O=C(O)c1cnn(-c2nc3cc(F)ccc3[nH]2)c1` [Example 42, 1-(5-Fluoro-1H-benzoimidazol-2-yl)-1H-pyrazole-4-carboxylic Acid] are 6.3 and 33.8%.

With `O=C(O)c1cnn(-c2nc3cc(N4CCCC4)c(Cl)cc3[nH]2)c1` [Example 43, 1-(6-Chloro-5-pyrrolidin-1-yl-1H-benzoimidazol-2-yl)-1H-pyrazole-4-carboxylic Acid], on human PHD2181-417, the “Enzyme pIC50” value was determined as 6.7. In addition, the EPO secretion, % of control compound in the assay with Hep-3B cells was found to be 178%. Consider `O=C(O)c1cnn(-c2nc3cc(N4CCCCC4)c(Cl)cc3[nH]2)c1` [Example 44, 1-(6-Chloro-5-piperidin-1-yl-1H-benzoimidazol-2-yl)-1H-pyrazole-4-carboxylic Acid], for which, on human PHD2181-417, the “Enzyme pIC50” value was 6.7. For the same molecule, in the assay on Hep-3B cells, the EPO secretion, % of control compound was 139%. For the molecule `O=C(O)c1cnn(-c2nc3cc(N4CCOCC4)c(Cl)cc3[nH]2)c1` [Example 45, 1-(6-Chloro-5-morpholin-4-yl-1H-benzoimidazol-2-yl)-1H-pyrazole-4-carboxylic Acid], on human PHD2181-417, the “Enzyme pIC50” value is given as 6.6. The EPO secretion, % of control compound with Hep-3B cells is 30.9%. Taken in the same sequence, the figures for `COc1cc2[nH]c(-n3cc(C(=O)O)cn3)nc2cc1Cl` [Example 46, 1-(6-Chloro-5-methoxy-1H-benzoimidazol-2-yl)-1H-pyrazole-4-carboxylic Acid] were 6.5 and 76%. In the same order, the values of `O=C(O)c1ccc2[nH]c(-n3cc(C(=O)O)cn3)nc2c1` [Example 47, 2-(4-Carboxy-pyrazol-1-yl)-1H-benzoimidazole-5-carboxylic Acid] are 6.6 and 11%. Taken in the same sequence, the figures for `O=C(O)c1cnn(-c2nc3cc(Br)cc(F)c3[nH]2)c1` [Example 48, 1-(5-Bromo-7-fluoro-1H-benzoimidazol-2-yl)-1H-pyrazole-4-carboxylic Acid] were 6.3 and 44%. For the molecule `Cc1cc(Br)cc2nc(-n3cc(C(=O)O)cn3)[nH]c12` [Example 49, 1-(5-Bromo-7-methyl-1H-benzoimidazol-2-yl)-1H-pyrazole-4-carboxylic Acid], on human PHD2181-417, the “Enzyme pIC50” value is 6.1. In addition, the EPO secretion, % of control compound with Hep-3B cells worked out at 24%. In the same order, the values of `O=C(O)c1cnn(-c2nc3cc(Oc4ccc(Cl)c(Cl)c4)c(C(F)(F)F)cc3[nH]2)c1` [Example 50, 1-[5-(3,4-Dichloro-phenoxy)-6-trifluoromethyl-1H-benzoimidazol-2-yl]-1H-pyrazole-4-carboxylic Acid] are 7.4 and 18%.

On to `O=C(O)c1cnn(-c2nc3cc(SCc4ccc(C(F)(F)F)cc4)c(Cl)cc3[nH]2)c1` [Example 170, 1-[6-Chloro-5-(4-trifluoromethyl-benzylsulfanyl)-1H-benzoimidazol-2-yl]-1H-pyrazole-4-carboxylic Acid], for which the “Enzyme pIC50” value at human PHD2181-417 was found to be 6.7.

Regarding `O=C(O)c1cnn(-c2nc3cc(SCc4ccc(C(F)(F)F)cc4C(F)(F)F)c(Cl)cc3[nH]2)c1` [Example 171, 1-[5-(2,4-Bis-trifluoromethyl-benzylsulfanyl)-6-chloro-1H-benzoimidazol-2-yl]-1H-pyrazole-4-carboxylic Acid], on human PHD2181-417, the “Enzyme pIC50” value is on record as 6.7. On the same count and under the same terms, the value for `N#Cc1ccccc1-c1ccc(CSc2cc3nc(-n4cc(C(=O)O)cn4)[nH]c3cc2Cl)cc1` [Example 172, 1-[6-Chloro-5-(2′-cyano-biphenyl-4-ylmethylsulfanyl)-1H-benzoimidazol-2-yl]-1H-pyrazole-4-carboxylic Acid] was 7.5; that for `Cc1ccc(CS(=O)(=O)c2cc3nc(-n4cc(C(=O)O)cn4)[nH]c3cc2Cl)cc1` [Example 178, 1-(6-Chloro-5-p-tolylmethanesulfonyl-1H-benzoimidazol-2-yl)-1H-pyrazole-4-carboxylic Acid] was 7.7; that for `O=C(O)c1cnn(-c2nc3cc(S(=O)(=O)Cc4ccc(C(F)(F)F)cc4)c(Cl)cc3[nH]2)c1` [Example 179, 1-[6-Chloro-5-(4-trifluoromethyl-phenylmethanesulfonyl)-1H-benzoimidazol-2-yl]-1H-pyrazole-4-carboxylic Acid] was 7.7. Turning to `O=C(O)c1cnn(-c2nc3cc(S(=O)(=O)Cc4ccc(C(F)(F)F)cc4C(F)(F)F)c(Cl)cc3[nH]2)c1` [Example 180, 1-[5-(2,4-Bis-trifluoromethyl-phenylmethanesulfonyl)-6-chloro-1H-benzoimidazol-2-yl]-1H-pyrazole-4-carboxylic Acid], the “Enzyme pIC50” value on human PHD2181-417 stood at 7.6.

On to `N#Cc1ccccc1-c1ccc(CS(=O)(=O)c2cc3nc(-n4cc(C(=O)O)cn4)[nH]c3cc2Cl)cc1` [Example 181, 1-[6-Chloro-5-(2′-cyano-biphenyl-4-ylmethanesulfonyl)-1H-benzoimidazol-2-yl]-1H-pyrazole-4-carboxylic Acid], for which, on human PHD2181-417, the “Enzyme pIC50” value stood at 7.7.
